Experimental data from patent publication US9365562B2, “1,3 substituted azetidine PDE10 inhibitors” (Merck Sharp & Dohme Corp., priority 2011, dated 2016).

Biological target: human PDE10A2 (Homo sapiens (Human), UniProt Q9Y233)
Test: PDE10 fluorescence polarization (IMAP FP) inhibition assay
Assay type: biochemical
Details: apparent inhibition constant, FAM-labeled cAMP substrate 50 nM, room temperature
Procedure, shortened: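 Cytoplasmic lysate of AD293 cells transiently expressing human PDE10A2, enzyme preincubated 60 min at room temperature with compounds (1% DMSO), then 50 nM FAM-cAMP added for 60 min. Buffer 10 mM Tris HCl pH 7.2, 10 mM MgCl2, 1 mM DTT; IMAP binding reagent stop, FP read after ≥1 h.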

Chain of human PDE10A2 (Q9Y233 267-1055): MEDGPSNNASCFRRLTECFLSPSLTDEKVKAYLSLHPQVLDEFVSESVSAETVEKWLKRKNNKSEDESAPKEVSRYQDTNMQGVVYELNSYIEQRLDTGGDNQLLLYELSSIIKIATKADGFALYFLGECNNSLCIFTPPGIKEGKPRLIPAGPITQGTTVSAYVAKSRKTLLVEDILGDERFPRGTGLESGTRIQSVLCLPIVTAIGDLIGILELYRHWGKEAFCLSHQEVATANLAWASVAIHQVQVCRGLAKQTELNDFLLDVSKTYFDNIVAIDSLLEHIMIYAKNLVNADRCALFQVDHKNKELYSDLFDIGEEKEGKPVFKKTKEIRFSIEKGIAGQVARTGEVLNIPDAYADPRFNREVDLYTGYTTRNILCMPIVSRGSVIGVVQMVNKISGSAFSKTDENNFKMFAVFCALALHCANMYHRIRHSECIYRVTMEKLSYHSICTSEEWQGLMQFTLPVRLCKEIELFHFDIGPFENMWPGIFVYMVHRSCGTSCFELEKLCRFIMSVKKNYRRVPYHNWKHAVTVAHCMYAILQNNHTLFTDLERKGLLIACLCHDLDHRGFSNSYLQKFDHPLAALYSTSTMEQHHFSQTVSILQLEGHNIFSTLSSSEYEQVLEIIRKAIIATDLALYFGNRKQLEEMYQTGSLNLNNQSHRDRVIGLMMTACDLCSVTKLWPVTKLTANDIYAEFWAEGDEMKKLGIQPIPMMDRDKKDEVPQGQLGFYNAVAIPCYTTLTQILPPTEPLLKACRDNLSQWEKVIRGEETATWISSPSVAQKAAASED

SMILES	Ki [nM]
Cc1ccc2nc(C3CN(c4cc(-n5nc(C)nc5C)nc(C)n4)C3)[nH]c2c1 [Example 111, 2-(1-(6-(3,5-dimethyl-1H-1,2,4-triazol-1-yl)-2-methylpyrimidin-4-yl)azetidin-3-yl)-6-methyl-1H-benzo[d]imidazole]	39
Cc1nc(N2CC(c3nc4cccc(C(F)(F)F)c4[nH]3)C2)cc(-n2nc(C)nc2C)n1 [Example 112, 2-(1-(6-(3,5-dimethyl-1H-1,2,4-triazol-1-yl)-2-methylpyrimidin-4-yl)azetidin-3-yl)-7-(trifluoromethyl)-1H-benzo[d]imidazole]	> 75
Cc1nc(N2CC(c3nc4ccc(C(F)(F)F)cc4[nH]3)C2)cc(-n2nc(C)nc2C)n1 [Example 113, 2-(1-(6-(3,5-dimethyl-1H-1,2,4-triazol-1-yl)-2-methylpyrimidin-4-yl)azetidin-3-yl)-6-(trifluoromethyl)-1H-benzo[d]imidazole]	> 75
CCn1c(C2CN(c3cc(-n4nc(C)nc4C)nc(C)n3)C2)nc2ccccc21 [Example 114, 2-(1-(6-(3,5-Dimethyl-1H-1,2,4-triazol-1-yl)-2-methylpyrimidin-4-yl)azetidin-3-yl)-1-ethyl-1H-benzo[d]imidazole]	5.9
Cc1nc(N2CC(c3nc4ccccc4n3CC#N)C2)cc(-n2nc(C)nc2C)n1 [Example 115, 2-(2-(1-(6-(3,5-dimethyl-1H-1,2,4-triazol-1-yl)-2-methylpyrimidin-4-yl)azetidin-3-yl)-1H-benzo[d]imidazol-1-yl)acetonitrile]	14
Cc1nc(N2CC(c3nc4ccccc4n3CCF)C2)cc(-n2nc(C)nc2C)n1 [Example 116, 2-(1-(6-(3,5-dimethyl-1H-1,2,4-triazol-1-yl)-2-methylpyrimidin-4-yl)azetidin-3-yl)-1-(2-fluoroethyl)-1H-benzo[d]imidazole]	6.2
Cc1nc(N2CC(c3nc4ccccc4n3CCO)C2)cc(-n2nc(C)nc2C)n1 [Example 117, 2-(2-(1-(6-(3,5-dimethyl-1H-1,2,4-triazol-1-yl)-2-methylpyrimidin-4-yl)azetidin-3-yl)-1H-benzo[d]imidazol-1-yl)ethanol]	6.6
CCCn1c(C2CN(c3cc(-n4nc(C)nc4C)nc(C)n3)C2)nc2ccccc21 [Example 118, 2-(1-(6-(3,5-dimethyl-1H-1,2,4-triazol-1-yl)-2-methylpyrimidin-4-yl)azetidin-3-yl)-1-propyl-1H-benzo[d]imidazole]	13
Cc1nc(N2CC(c3nc4ccccc4n3CCC#N)C2)cc(-n2nc(C)nc2C)n1 [Example 119, 3-(2-(1-(6-(3,5-dimethyl-1H-1,2,4-triazol-1-yl)-2-methylpyrimidin-4-yl)azetidin-3-yl)-1H-benzo[d]imidazol-1-yl)propanenitrile]	5
CCOCCn1c(C2CN(c3cc(-n4nc(C)nc4C)nc(C)n3)C2)nc2ccccc21 [Example 120, 2-(1-(6-(3,5-dimethyl-1H-1,2,4-triazol-1-yl)-2-methylpyrimidin-4-yl)azetidin-3-yl)-1-(2-ethoxyethyl)-1H-benzo[d]imidazole]	8.5
Cc1nc(N2CC(c3nc4ccccc4n3CCCC#N)C2)cc(-n2nc(C)nc2C)n1 [Example 121, 4-(2-(1-(6-(3,5-dimethyl-1H-1,2,4-triazol-1-yl)-2-methylpyrimidin-4-yl)azetidin-3-yl)-1H-benzo[d]imidazol-1-yl)butanenitrile]	9.5
Cc1nc(N2CC(c3nc4c(F)cccc4n3C)C2)cc(-n2nc(C)nc2C)n1 [Example 122, 2-(1-(6-(3,5-dimethyl-1H-1,2,4-triazol-1-yl)-2-methylpyrimidin-4-yl)azetidin-3-yl)-4-fluoro-1-methyl-1H-benzo[d]imidazole]	17
Cc1nc(N2CC(c3nc4cccc(F)c4n3C)C2)cc(-n2nc(C)nc2C)n1 [Example 123, 2-(1-(6-(3,5-dimethyl-1H-1,2,4-triazol-1-yl)-2-methylpyrimidin-4-yl)azetidin-3-yl)-7-fluoro-1-methyl-1H-benzo[d]imidazole]	7.1
Cc1nc(N2CC(c3nc4c(C)cccc4n3C)C2)cc(-n2nc(C)nc2C)n1 [Example 124, 2-(1-(6-(3,5-dimethyl-1H-1,2,4-triazol-1-yl)-2-methylpyrimidin-4-yl)azetidin-3-yl)-1,4-dimethyl-1H-benzo[d]imidazole]	22
Cc1nc(N2CC(c3nc4c(C(F)(F)F)cccc4n3C)C2)cc(-n2nc(C)nc2C)n1 [Example 125, 2-(1-(6-(3,5-dimethyl-1H-1,2,4-triazol-1-yl)-2-methylpyrimidin-4-yl)azetidin-3-yl)-1-methyl-4-(trifluoromethyl)-1H-benzo[d]imidazole]	37
Cc1ccc(C2CN(c3cc(-n4nc(C)nc4C)nc(C)n3)C2)nc1 [Example 126, 4-(3,5-Dimethyl-1H-1,2,4-triazol-1-yl)-2-methyl-6-[3-(5-methylpyridin-2-yl)azetidin-1-yl]pyrimidine]	407
